Laboratory results as given in PMC11714206, “Massively Parallel Screening of Toll/Interleukin‐1 Receptor (TIR)‐Derived Peptides Reveals Multiple Toll‐Like Receptors (TLRs)‐Targeting Immunomodulatory Peptides” (Advanced Science, 2024).
Each block holds one sequence with its values, some of them ahead of it.

Target: T1, MyD88^TIR (Homo sapiens, UniProt Q99836)
T1 construct: MyD88 (residues 148–296); 6xHis; made in house; host or cells: E. coli BL21 (DE3)
Experiment: T‐Surf phage library (P8 and P3) selection against MyD88^TIR, four rounds, NGS read counts
Format: binding
Conditions: for P8_MyD88 Rank (after) / P8_MyD88 Rank (before): P8 library; for Population: 4th round of selection against MyD88 TIR, share of NGS reads; for P3_MyD88 Rank (after) / P3_MyD88 Rank (before): P3 library
In short: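 Read counts come from NGS of phage pools enriched over four selection rounds on the plate‐coated TIR domain (5 µg mL^−1). Each round: 1 h phage binding at room temperature after 0.2% BSA blocking, Tween washes, acid elution, amplification in E. coli TG1 with M13KO7 helper.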

[1] = 4R selection against MyD88, rank after grouping
[2] = 4R selection against MyD88, rank before grouping
[3] = P8_MyD88: rank by NGS read count after grouping
[4] = P8_MyD88: rank by NGS read count before grouping
[5] = P8_MyD88: rank by count after grouping
[6] = P8_MyD88: rank by count before grouping
[7] = P8_MyD88 pool: P8 T-Surf phage library
[8] = P3_MyD88: rank by count after grouping
[9] = P3_MyD88: rank by count before grouping
[10] = selection against MyD88 TIR, rank by count after grouping
[11] = selection against MyD88 TIR, rank by count before grouping
[12] = selection against MyD88, rank by count after grouping
[13] = selection against MyD88, rank by count before grouping
[14] = selection against MyD88, rank after grouping
[15] = selection against MyD88, rank before grouping

T1 sequence (Q99836 148-296): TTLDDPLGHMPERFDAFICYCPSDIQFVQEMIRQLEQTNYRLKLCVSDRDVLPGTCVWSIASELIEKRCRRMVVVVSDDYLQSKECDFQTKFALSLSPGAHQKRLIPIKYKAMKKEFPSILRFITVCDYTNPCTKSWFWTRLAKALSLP

P8_MyD88 Rank (after) [1]: 600
P8_MyD88 Rank (before) [2]: 1360
Sequence: WFLEPLEKILQAHGTT

Rank (after) [3]: 921
Rank (before) [4]: 1358
Sequence: WFLFTVRSAIYAMSPA

Rank (after) [5]: 95
Rank (before) [6]: 100
Population [7]: 0.025%
Sequence: WFLTAFRMAMDQVADT

Rank (after) [8]: 406
Rank (before) [9]: 1414
Sequence: WFWDKLKYALHRNRI

P3_MyD88 Rank (after) [1]: 583
P3_MyD88 Rank (before) [2]: 1418
Sequence: WFWDKQKYTLPHRYEP

P8_MyD88 Rank (after) [10]: 200
P8_MyD88 Rank (before) [11]: 271
Sequence: WFWQKLNYAMPHLARL

P8_MyD88 Rank (after) [1]: 605
P8_MyD88 Rank (before) [2]: 1355
Sequence: WFWQSLRNTIIMDNQA

Rank (after) [5]: 176
Rank (before) [6]: 201
Sequence: WGQAVTEDLWGWLFNP

Rank (after) [5]: 475
Rank (before) [6]: 1653
Sequence: WILRAIWNSFGIVCI

P3_MyD88 Rank (after) [1]: 640
P3_MyD88 Rank (before) [2]: 1424
Sequence: WIWEKLKYALPHRYEP

P8_MyD88 Rank (after) [10]: 224
P8_MyD88 Rank (before) [11]: 380
Sequence: WKEALTYVSLLVGFPF

Rank (after) [5]: 110
Rank (before) [6]: 116
Population [7]: 0.02%
Sequence: WLESVLEDKFGYSLAL

P8_MyD88 Rank (after) [12]: 693
P8_MyD88 Rank (before) [13]: 1380
Sequence: WLLDQLDKILEAHGTT

P8_MyD88 Rank (after) [10]: 268
P8_MyD88 Rank (before) [11]: 529
Sequence: WMRALAYIVNIVGESS

P8_MyD88 Rank (after) [10]: 202
P8_MyD88 Rank (before) [11]: 275
Sequence: WPEDYQDIGWFLDNLS

Rank (after) [5]: 416
Rank (before) [6]: 899
Sequence: WPQDPQDLGWFYERLE

P8_MyD88 Rank (after) [12]: 764
P8_MyD88 Rank (before) [13]: 1648
Sequence: WRDALNNISSIFGWVA

P8_MyD88 Rank (after) [10]: 243
P8_MyD88 Rank (before) [11]: 435
Sequence: WRDVLKYIANLSGWDS

Rank (after) [5]: 430
Rank (before) [6]: 897
Sequence: WRTALTKVGNMLGWIS

Sequence: WRWMNCCRFCMRVNC
P8_MyD88 Rank (after) [12]: 729
P8_MyD88 Rank (before) [13]: 1649

P8_MyD88 Rank (after) [14]: 508
P8_MyD88 Rank (before) [15]: 1386
Sequence: WSLDELLKILYAKETI

P8_MyD88 Rank (after) [10]: 274
P8_MyD88 Rank (before) [11]: 530
Sequence: WSQPEFRAAMQAVLEL

P8_MyD88 Rank (after) [1]: 656
P8_MyD88 Rank (before) [2]: 1656
Sequence: WTLNELQTILNILDIG

P8_MyD88 Rank (after) [1]: 599
P8_MyD88 Rank (before) [2]: 1388
Sequence: WVFASNLETFWARLYY

P8_MyD88 Rank (after) [10]: 228
P8_MyD88 Rank (before) [11]: 372
Sequence: WVFQTLYSTLEDEYAF

Rank (after) [3]: 976
Rank (before) [4]: 1390
Sequence: WVLHKVLQILHAREIY

Rank (after) [5]: 134
Rank (before) [6]: 158
Population [7]: 0.00925%
Sequence: WWIQALAEVANMAGED

P8_MyD88 Rank (after) [14]: 558
P8_MyD88 Rank (before) [15]: 1710
Sequence: YAASMRWFGELAKIVG

P8_MyD88 Rank (after) [14]: 497
P8_MyD88 Rank (before) [15]: 1755
Sequence: YAASPRLFGEPVKIVG

P8_MyD88 Rank (after) [14]: 521
P8_MyD88 Rank (before) [15]: 1754
Sequence: YAASPRWLDDLVNIVG

P8_MyD88 Rank (after) [14]: 543
P8_MyD88 Rank (before) [15]: 1720
Sequence: YAASPWWFDDIQQIQLFWD

P8_MyD88 Rank (after) [1]: 633
P8_MyD88 Rank (before) [2]: 1740
Sequence: YAASPWWFDELLQIA

P8_MyD88 Rank (after) [12]: 678
P8_MyD88 Rank (before) [13]: 1722
Sequence: YAASPWWFDELVHILW

Rank (after) [3]: 906
Rank (before) [4]: 1733
Sequence: YAASPWWFDELVKILE

Rank (after) [5]: 418
Rank (before) [6]: 1762
Sequence: YAASPWWFDELVKTVR

Rank (after) [5]: 407
Rank (before) [6]: 1723
Sequence: YAASPWWFDELVRIVC

Rank (after) [5]: 433
Rank (before) [6]: 1725
Sequence: YAASPWWFDELVTILG

P8_MyD88 Rank (after) [1]: 612
P8_MyD88 Rank (before) [2]: 1716
Sequence: YAASPWWFYERVEILG

P8_MyD88 Rank (after) [12]: 752
P8_MyD88 Rank (before) [13]: 1758
Sequence: YAASPWWLVELVQIVG

P8_MyD88 Rank (after) [14]: 540
P8_MyD88 Rank (before) [15]: 1760
Sequence: YAASTWWHTVLARLMG

P3_MyD88 Rank (after) [12]: 692
P3_MyD88 Rank (before) [13]: 1481
Sequence: YAFTCHLHRYLVQRCV

Rank (after) [8]: 118
Rank (before) [9]: 1545
Sequence: YAFTCHLQRYLVQRGV

Rank (after) [8]: 422
Rank (before) [9]: 1485
Sequence: YAFTGHFQRYLVQRGV

P3_MyD88 Rank (after) [14]: 506
P3_MyD88 Rank (before) [15]: 1489
Sequence: YAFTGHLCRCLVLRGA

Population (P3_MyD88 pool: P3 T-Surf phage library): 0.00291%
Sequence: YAFTGHLHATL

Rank (after) [8]: 95
Rank (before) [9]: 278
Sequence: YAFTGHLHHALRLNKIETF

Rank (after) [8]: 427
Rank (before) [9]: 1521
Sequence: YAFTGHLHRDLVQRGL

P3_MyD88 Rank (after) [1]: 581
P3_MyD88 Rank (before) [2]: 1523
Sequence: YAFTGHLHRIWCSVA

P3_MyD88 Rank (after) [1]: 610
P3_MyD88 Rank (before) [2]: 1533
Sequence: YAFTGHLHRYIEQRSG

P3_MyD88 Rank (after) [1]: 630
P3_MyD88 Rank (before) [2]: 1502
Sequence: YAFTGHLHRYLVLRGA
